These results are taken from patent US4495201A, “Pharmaceutical composition and method for treating heart diseases therewith” (Institut Organicheskoi Khimii Imeni N.D. Zelinskogo, priority 1982, dated 1985).

One data set in a line: Solubility and stability. Type of data set: physicochemical.
The subject of data set [1] is zone of necrosis, perinecrotic zone and myocardium regions spaced from the place of infarction. Briefly: Experimental myocardial infarction in rabbits: histological, histochemical and electron-microscopic study. Type of data set: in vivo, rabbits of the Chinchilla variety. To be noted: for effect on reparative processes in the zone of necrosis / organization of the post-infarction scar: comparison of preparations; for activity of lysis-ensuring enzymes: zone of necrosis and perinecrotic areas. The source says: The experiment on animals has been performed on 419 rabbits of the Chinchilla variety with experimentally-induced myocardial infarction produced by ligation of the front descending branch of the coronary artery.
The effect of the composition according to the present invention on the progress of the experimental myocardial infarction has been studied in comparison with the effect produced by inosine, potassium orotate, vitamin B12 with folic acid and retabolyl.
Histological, histochemical and electron-microscopic methods of investigation have been employed to study the zone of necrosis, perinecrotic zone and myocardium regions spaced from the place of infarction by 1, 3 and 7 days after operation. Furthermore, to determine the contractile ability of myocardium, measurements of intracavitary pressure have been performed. Dynamic electrocardiographic observation over the animals was carried out 7 times during the first day (prior to operation, 15, 30 minutes, 1, 2, 3 and 4 hours after the administration) and during the following days two times a day (before and one hour after the administration).
The study of the total cross-sectional patterns of a rabbit's heart has made it possible to precisely define these zones.
The first group of rabbits has been intramuscularly injected with the composition according to the present invention in the dose of 1 mg/kg in a day.
The second group of rabbits has been injected with inosine in a dose of 30 mg/kg intravenously daily once a day; for the first time 16 hours after the operation and for the last time 2 hours before slaughter (i.e. before the 7th day). The third group of rabbits has been given potassium orotate in a dose of 30 mg/kg in the same sequence as the previous preparation, i.e. up to the 7th day.
The fourth group of animals has been administered vitamin B12 3γ/kg in combination with folic acid in the same sequence.
The fifth group of rabbits has been administered an anabilic hormone of a prolonged action--retabolyl in a dose of 5 mg/kg of the bodyweight 1-2 times intramuscularly up to the 7th day.

The subject of data set [2] is left ventricle of the heart. The data set can be described thus: Intracardiac hemodynamics (intracavitary pressure). The data set is classed as in vivo, rabbits. To be noted: versus the composition.
For a further data set, the system named is central hemodynamics. Briefly: Central hemodynamics by radiocardiography in patients with myocardial infarction. The data set is classed as in vivo. To be noted: as compared to the control.
Data set [3] deals with insufficiency of blood circulation and post-infarctional aneurysm. The data set can be described thus: Clinical outcome: insufficiency of blood circulation and post-infarction aneurysm. The data set is classed as in vivo, patients. To be noted: comparison of the composition and inosine.
Experimental: (§1) The composition according to the present invention is administered to the patients intramuscularly in a dose of from 25 to 50 mg once every three days.
A further dynamic electrocardiographic observation is effected during the first day of injection of the composition (prior to injection and 1 and 2 hours thereafter), then once per 3 and later on--per 5 days. On the 1th, 10th, 20th and 40th days of the disease the central hemodynamics was determined by the method of radiocardiography. On the 10th and 40th days of the illness the contractile capacity of myocardium is assessed by methods of electro- and X-ray kymography. The biochemical control over the effect of the preparation was effected by determination, in dynamics in blood serum, of the products of decomposition of DNA, proline, hydroxyproline, transaminases. There was also analyzed the dynamics of normalization of leukocytosis, ESR (erythrocyte sedimentation rate), disappearance of aneosinophilia. The careful clinical assessment of the effect of the composition was also performed.

Experimental for central hemodynamics: as §1
On the 1th, 10th, 20th and 40th days of the disease the central hemodynamics was determined by the method of radiocardiography.

With `CC(C)=CCCC(C)=CCC(CCCN(C)C)C(=O)O` (stereo not shown) [4',5,9-trimethyl-2-(4'-aza-pentyl)decadi-4,8-ene acid], in the data set “Solubility and stability”, the “solubility in aqueous solutions of strong acids, alkalis, diluted solutions of salts” value was “well soluble”; the “solubility in fats and vegetable oils” value is listed as “well soluble”; the “solubility in organic solvents (ethanol, ether, acetone, gasoline, benzene)” value is on record as “well soluble”; the solubility in water result is on record as “well soluble”. In “Solubility and stability” (aqueous solutions), the “stability of aqueous solutions” value is “transparent, stable and can be sterilized by conventional methods”. In addition, the stability in storage entry in “Solubility and stability” (not more than 25° C., advisable period two years) is “stable in storage”.

As for `O=c1[nH]cnc2c1ncn2[C@@H]1O[C@H](CO)[C@@H](O)[C@H]1O` [inosine, hypoxanthine riboside], in data set [1], the “cellular infiltration of the zone of necrosis” value is “enhanced cellular infiltration of the zone of infarction”, the “effect on reparative processes in the zone of necrosis / organization of the post-infarction scar” value was “substantially less pronounced than the effect of the preparation according to the present invention” and the “activity of lysis-ensuring enzymes” value is “increasing activity of lysis-ensuring enzymes is limited only to the zone of necrosis”. The “effect on formation of compensatory hyperfunction and hypertrophy of extrainfarction areas” value in data set [2] was “more marked effect”. Also, the “regaining of hemodynamic characteristics (cardiac and systolic indices, beat work of the heart)” value in the data set on central hemodynamics was “more pronounced and earlier regaining”. In addition, the “patients in whom effect on state of blood circulation is greatest” value in data set [3] is “most pronounced effect on the state of blood circulation in patients with a repeated myocardial infarction”.

In the case of `O=C(O)c1cc(O)nc(O)n1` [potassium orotate, 2,6-dihydroxypyrimidine-4-carboxylic acid], in data set [1], the “activity of lactatedehydrogenase in extra-infarction areas of myocardium” value is given as “slightly less pronounced effect”, the “effect on reparative processes in the zone of necrosis / organization of the post-infarction scar” value was “still less pronounced effect” and the “activity of lysis-ensuring enzymes” value is listed as “slightly increasing activity”. Also, the “activity of reactions of pentose-phosphate shunt (glucoso-6-phosphatehydrogenase)” value in data set [1] (perinecrotic areas of myocardium) is “slightly increasing activity”. For the same molecule, the “effect on formation of compensatory hyperfunction and hypertrophy of extrainfarction areas” value in data set [2] is “more marked effect”.

For `CCCCCCCCCC(=O)O[C@H]1CC[C@H]2[C@@H]3CCC4=CC(=O)CC[C@@H]4[C@H]3CC[C@]12C` [retabolyl, nandrolone decanoate], in data set [1], the “activity of lactatedehydrogenase in extra-infarction areas of myocardium” value was “slightly less pronounced effect” and the “effect on reparative processes in the zone of necrosis / organization of the post-infarction scar” value is “less pronounced”.
